Data reported in ChEMBL document CHEMBL1140726, “Discovery and biological evaluation of 5-aryl-2-furfuramides, potent and selective blockers of the Nav1.8 sodium channel with efficacy in models of neuropathic and inflammatory pain” (J Med Chem, 2008).

Columns and labels:
[1] = Activity at rat dorsal root ganglion in inactivated state with prepulse voltage of -40 mV assessed as blockade of TTx-resistant sodium current at 0.3 uM by whole-cell patch clamp technique; type: functional
[2] = Half life in Sprague-Dawley rat; type: ADME, organism-based; settings: in vivo
Translocator protein [3] = target: T1, Translocator protein (Homo sapiens, UniProt P30536); experiment: Binding affinity to peripheral benzodiazepine receptor at 10 uM
[4] = target: Sodium channel protein type 9 subunit alpha (Homo sapiens) (UniProt Q15858); experiment: Inhibition of human Nav1.7 channel at 3 uM
[5] = target: T2, Sodium channel protein type 10 subunit alpha (Homo sapiens, UniProt Q9Y5Y9); experiment: Activity at human recombinant Nav 1.8 channel expressed in HEK293 cells in inactivated state with prepulse voltage of -40 mV assessed as blockade of TTx-resistant sodium current at 0.01 uM; type: cell-based
[6] = target: Sodium channel protein type 5 subunit alpha (Homo sapiens, UniProt Q14524); experiment: (§1) Inhibition of human Nav1.5 channel at 1 uM
[7] = target: Sodium channel protein type 3 subunit alpha (Homo sapiens) (UniProt Q9NY46); experiment: Inhibition of human Nav1.3 channel at 10 uM
[8] = target: T2, Sodium channel protein type 10 subunit alpha; experiment: Activity at human recombinant Nav 1.8 channel expressed in HEK293 cells in inactivated state with prepulse voltage of -40 mV assessed as blockade of TTx-resistant sodium current at 0.03 uM; type: cell-based
[9] = target: T2, Sodium channel protein type 10 subunit alpha; experiment: Activity at human recombinant Nav 1.8 channel expressed in HEK293 cells in resting state with prepulse voltage of -100 mV assessed as blockade of TTx-resistant sodium current at 0.01 uM; type: cell-based
[10] = target: Sodium channel protein type 3 subunit alpha (Homo sapiens) (UniProt Q9NY46); experiment: Inhibition of human Nav1.3 channel at 3 uM
Rattus norvegicus [11] = experiment: Antinociceptive activity in ip dosed Sprague-Dawley rat assessed as reduction of CFA-induced thermal hyperalgesia; type: functional; parameters: Activity: scale not given: the % may be the effect or the level left
[12] = target: T2, Sodium channel protein type 10 subunit alpha; experiment: Activity at human recombinant Nav 1.8 channel expressed in HEK293 cells in resting state with prepulse voltage of -100 mV assessed as blockade of TTx-resistant sodium current at 0.03 uM; type: cell-based
[13] = target: T3, Nav1.5 (sodium channel protein type 5 subunit alpha) (Homo sapiens, UniProt Q14524); experiment: Inhibition of human Nav1.5 channel at 10 uM
T3 sequence (Q14524 whole entry): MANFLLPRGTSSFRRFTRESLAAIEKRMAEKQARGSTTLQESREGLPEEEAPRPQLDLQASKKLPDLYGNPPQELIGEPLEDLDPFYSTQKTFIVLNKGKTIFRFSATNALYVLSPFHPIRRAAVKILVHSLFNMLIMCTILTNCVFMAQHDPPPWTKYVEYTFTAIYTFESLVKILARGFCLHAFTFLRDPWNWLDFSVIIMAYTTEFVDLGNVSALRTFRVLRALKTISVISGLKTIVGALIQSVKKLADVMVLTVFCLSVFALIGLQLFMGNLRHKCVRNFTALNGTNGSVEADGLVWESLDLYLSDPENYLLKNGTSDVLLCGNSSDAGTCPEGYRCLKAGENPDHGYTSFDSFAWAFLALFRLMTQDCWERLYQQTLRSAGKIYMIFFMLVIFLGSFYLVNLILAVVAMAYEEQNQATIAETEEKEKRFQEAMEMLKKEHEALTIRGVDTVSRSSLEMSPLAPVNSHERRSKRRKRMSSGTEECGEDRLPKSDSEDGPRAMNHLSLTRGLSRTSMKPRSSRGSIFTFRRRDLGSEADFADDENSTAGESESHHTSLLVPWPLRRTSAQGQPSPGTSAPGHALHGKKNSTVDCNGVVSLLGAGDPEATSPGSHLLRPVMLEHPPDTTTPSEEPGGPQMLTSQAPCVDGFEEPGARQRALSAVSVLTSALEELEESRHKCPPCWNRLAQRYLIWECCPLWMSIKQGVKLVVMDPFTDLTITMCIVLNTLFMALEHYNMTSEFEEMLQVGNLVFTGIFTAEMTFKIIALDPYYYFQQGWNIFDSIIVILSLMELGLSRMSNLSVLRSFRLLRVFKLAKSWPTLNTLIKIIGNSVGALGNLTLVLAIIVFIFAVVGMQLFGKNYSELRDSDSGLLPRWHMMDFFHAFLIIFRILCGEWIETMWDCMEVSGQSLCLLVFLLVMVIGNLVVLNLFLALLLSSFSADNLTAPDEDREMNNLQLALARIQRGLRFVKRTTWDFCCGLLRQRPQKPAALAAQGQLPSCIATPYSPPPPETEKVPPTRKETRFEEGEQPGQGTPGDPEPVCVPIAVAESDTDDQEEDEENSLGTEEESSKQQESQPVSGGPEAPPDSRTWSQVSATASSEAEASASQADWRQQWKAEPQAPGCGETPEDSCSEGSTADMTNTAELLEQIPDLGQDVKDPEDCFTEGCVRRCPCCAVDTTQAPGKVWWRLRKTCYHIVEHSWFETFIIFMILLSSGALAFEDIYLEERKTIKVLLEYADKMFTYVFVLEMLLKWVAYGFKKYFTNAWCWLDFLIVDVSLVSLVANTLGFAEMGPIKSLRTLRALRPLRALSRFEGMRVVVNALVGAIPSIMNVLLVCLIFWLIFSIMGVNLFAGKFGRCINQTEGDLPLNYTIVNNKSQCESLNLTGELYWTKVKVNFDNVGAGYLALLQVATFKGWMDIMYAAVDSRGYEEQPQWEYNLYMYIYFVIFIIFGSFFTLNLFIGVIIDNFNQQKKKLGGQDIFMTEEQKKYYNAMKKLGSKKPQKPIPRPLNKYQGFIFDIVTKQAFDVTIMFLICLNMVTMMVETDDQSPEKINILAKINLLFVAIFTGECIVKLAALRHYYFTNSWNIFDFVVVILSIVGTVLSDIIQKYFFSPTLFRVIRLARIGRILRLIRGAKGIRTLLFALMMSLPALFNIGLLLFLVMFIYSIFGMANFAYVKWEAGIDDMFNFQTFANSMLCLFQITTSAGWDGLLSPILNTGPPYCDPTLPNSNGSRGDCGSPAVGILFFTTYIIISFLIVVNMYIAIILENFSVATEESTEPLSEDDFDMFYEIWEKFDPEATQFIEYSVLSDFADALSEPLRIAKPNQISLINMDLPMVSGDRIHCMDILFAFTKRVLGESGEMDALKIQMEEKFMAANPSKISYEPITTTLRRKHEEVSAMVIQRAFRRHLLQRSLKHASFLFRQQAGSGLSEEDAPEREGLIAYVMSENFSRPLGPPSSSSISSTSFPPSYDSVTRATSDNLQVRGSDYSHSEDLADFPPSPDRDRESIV

[14] = Oral bioavailability in Sprague-Dawley rat; type: ADME, organism-based; settings: in vivo
[15] = Activity at rat dorsal root ganglion in resting state with prepulse voltage of -100 mV assessed as blockade of TTx-resistant sodium current at 0.1 uM by whole-cell patch clamp technique; type: functional
[16] = target: Sodium channel protein type 2 subunit alpha (Homo sapiens) (UniProt Q99250); experiment: Inhibition of human Nav1.2 channel at 3 uM
Sodium channel protein type 2 subunit alpha (Homo sapiens), sequence (Q99250 whole entry, looked up): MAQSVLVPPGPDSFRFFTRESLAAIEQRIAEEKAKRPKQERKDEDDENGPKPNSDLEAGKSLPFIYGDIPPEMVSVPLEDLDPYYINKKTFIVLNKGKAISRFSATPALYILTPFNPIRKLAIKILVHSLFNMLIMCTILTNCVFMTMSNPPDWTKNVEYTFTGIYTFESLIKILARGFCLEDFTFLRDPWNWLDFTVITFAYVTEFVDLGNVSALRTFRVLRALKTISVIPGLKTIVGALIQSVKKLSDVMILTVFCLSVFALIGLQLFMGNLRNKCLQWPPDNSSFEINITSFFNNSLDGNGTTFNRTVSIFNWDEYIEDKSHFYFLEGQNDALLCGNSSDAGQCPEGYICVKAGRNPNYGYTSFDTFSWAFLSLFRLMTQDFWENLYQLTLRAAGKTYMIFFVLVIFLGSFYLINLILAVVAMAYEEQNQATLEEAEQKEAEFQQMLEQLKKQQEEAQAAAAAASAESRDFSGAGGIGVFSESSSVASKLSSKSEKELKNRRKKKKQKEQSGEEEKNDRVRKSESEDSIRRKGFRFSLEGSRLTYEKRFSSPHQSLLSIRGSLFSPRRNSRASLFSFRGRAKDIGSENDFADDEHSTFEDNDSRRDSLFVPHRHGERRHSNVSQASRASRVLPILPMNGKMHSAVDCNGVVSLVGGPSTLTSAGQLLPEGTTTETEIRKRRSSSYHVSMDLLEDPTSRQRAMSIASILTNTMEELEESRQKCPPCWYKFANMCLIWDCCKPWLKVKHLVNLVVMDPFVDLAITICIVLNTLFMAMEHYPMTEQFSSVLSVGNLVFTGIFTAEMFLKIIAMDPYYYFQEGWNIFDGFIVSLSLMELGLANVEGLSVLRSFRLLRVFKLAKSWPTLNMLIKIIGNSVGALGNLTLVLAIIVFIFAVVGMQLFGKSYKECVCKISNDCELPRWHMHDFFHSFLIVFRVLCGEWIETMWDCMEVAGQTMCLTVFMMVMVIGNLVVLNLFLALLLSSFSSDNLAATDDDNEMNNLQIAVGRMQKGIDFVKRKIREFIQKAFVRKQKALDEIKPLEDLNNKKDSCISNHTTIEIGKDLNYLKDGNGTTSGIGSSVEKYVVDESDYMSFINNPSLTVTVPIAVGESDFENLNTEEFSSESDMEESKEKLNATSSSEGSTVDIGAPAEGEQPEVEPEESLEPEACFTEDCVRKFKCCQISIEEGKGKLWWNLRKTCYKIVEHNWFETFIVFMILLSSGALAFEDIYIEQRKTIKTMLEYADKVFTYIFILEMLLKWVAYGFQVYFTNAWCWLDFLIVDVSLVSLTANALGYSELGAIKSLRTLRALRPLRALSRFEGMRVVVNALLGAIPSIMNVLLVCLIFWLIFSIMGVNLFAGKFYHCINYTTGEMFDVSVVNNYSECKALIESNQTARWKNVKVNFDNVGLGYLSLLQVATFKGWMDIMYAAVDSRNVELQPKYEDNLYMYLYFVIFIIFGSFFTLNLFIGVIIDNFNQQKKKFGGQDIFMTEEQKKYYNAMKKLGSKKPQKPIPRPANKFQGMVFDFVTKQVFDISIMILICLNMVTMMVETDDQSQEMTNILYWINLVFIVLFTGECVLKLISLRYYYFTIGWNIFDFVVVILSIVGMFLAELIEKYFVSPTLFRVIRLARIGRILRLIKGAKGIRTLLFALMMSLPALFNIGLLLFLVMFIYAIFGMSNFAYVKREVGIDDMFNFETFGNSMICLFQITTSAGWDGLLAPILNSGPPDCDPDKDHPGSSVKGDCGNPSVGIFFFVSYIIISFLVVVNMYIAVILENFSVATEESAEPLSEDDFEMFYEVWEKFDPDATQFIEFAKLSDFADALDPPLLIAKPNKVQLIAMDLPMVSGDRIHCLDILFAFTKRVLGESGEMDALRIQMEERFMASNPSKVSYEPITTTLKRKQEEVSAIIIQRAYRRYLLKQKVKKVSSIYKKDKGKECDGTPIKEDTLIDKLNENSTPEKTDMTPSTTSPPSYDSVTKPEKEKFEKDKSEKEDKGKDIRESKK

Rattus norvegicus [17] = experiment: Antinociceptive activity in ip dosed Sprague-Dawley rat assessed as attenuation of mechanical allodynia in chung model of neuropathic pain; type: functional
[18] = Bioavailability in Sprague-Dawley rat at 10 mg/kg, ip; type: ADME, organism-based; settings: in vivo
Translocator protein [19] = target: T1, Translocator protein; experiment: Binding affinity to peripheral benzodiazepine receptor
[20] = Cmax in Sprague-Dawley rat at 10 mg/kg, ip; type: ADME, organism-based; parameters: dose 10 mg/kg, route intraperitoneal; settings: in vivo
[21] = Volume of distribution at steady state in Sprague-Dawley rat; type: ADME, organism-based; settings: in vivo, read-out: Vdss
[22] = Protein binding in Sprague-Dawley rat plasma; type: ADME, cell-free; settings: read-out: PPB (converted)
[23] = target: Sodium channel protein type 2 subunit alpha (Homo sapiens) (UniProt Q99250); experiment: Inhibition of human Nav1.2 channel at 10 uM
[24] = target: Sodium channel protein type 9 subunit alpha (Homo sapiens) (UniProt Q15858); experiment: Inhibition of human Nav1.7 channel at 10 uM
[25] = Intrinsic clearance in Sprague-Dawley rat microsomes after 1 hr; type: ADME, Liver, Microsome
[26] = Activity at rat dorsal root ganglion in resting state with prepulse voltage of -100 mV assessed as blockade of TTx-resistant sodium current at 0.3 uM by whole-cell patch clamp technique; type: functional
[27] = target: T2, Sodium channel protein type 10 subunit alpha; experiment: Inhibition of human recombinant Nav 1.8 channel expressed in HEK293 cells at 0.03 uM; type: cell-based
[28] = target: T2, Sodium channel protein type 10 subunit alpha; experiment: Inhibition of human recombinant Nav 1.8 channel expressed in HEK293 cells at 0.01 uM; type: cell-based
[29] = Ratio of drug level in brain to plasma in Sprague-Dawley rat; type: ADME
[30] = target: T2, Sodium channel protein type 10 subunit alpha; experiment: Inhibition of human recombinant Nav 1.8 channel expressed in HEK293 cells; type: cell-based
[31] = target: Voltage-gated inwardly rectifying potassium channel KCNH2 (Homo sapiens, UniProt Q12809); experiment: Inhibition of hERG potassium channel expressed in CHO cells by isotope efflux assay
Voltage-gated inwardly rectifying potassium channel KCNH2, sequence (Q12809 whole entry): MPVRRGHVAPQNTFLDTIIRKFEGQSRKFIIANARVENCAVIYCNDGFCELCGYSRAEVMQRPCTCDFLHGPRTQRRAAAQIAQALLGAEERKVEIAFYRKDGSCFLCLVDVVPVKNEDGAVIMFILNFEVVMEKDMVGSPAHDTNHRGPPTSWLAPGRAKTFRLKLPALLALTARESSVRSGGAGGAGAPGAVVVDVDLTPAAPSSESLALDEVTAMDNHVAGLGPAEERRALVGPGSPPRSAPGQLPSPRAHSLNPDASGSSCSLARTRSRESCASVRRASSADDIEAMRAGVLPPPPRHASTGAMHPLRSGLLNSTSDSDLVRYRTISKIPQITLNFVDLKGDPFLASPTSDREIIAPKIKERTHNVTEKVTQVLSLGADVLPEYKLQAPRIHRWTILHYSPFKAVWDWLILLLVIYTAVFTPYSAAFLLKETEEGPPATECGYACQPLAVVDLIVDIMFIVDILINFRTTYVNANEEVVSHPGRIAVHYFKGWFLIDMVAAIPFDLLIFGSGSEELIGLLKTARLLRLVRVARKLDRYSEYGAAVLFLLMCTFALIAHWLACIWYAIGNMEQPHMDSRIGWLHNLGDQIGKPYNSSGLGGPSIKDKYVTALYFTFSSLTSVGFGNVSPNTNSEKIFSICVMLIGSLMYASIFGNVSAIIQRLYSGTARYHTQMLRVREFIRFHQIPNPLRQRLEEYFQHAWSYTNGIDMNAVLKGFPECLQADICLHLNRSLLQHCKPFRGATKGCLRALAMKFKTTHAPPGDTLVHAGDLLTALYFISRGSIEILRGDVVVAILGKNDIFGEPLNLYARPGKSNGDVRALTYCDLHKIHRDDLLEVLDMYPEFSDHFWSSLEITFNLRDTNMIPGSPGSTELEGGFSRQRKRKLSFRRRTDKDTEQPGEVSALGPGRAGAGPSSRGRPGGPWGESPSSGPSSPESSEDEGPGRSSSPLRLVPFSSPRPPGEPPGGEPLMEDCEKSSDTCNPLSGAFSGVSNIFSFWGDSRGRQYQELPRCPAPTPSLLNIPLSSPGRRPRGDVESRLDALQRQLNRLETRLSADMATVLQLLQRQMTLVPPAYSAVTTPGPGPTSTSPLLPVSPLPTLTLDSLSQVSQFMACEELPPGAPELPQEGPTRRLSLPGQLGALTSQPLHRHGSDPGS

[32] = Clearance in Sprague-Dawley rat plasma; type: ADME, organism-based
[33] = Activity at rat dorsal root ganglion in inactivated state with prepulse voltage of -40 mV assessed as blockade of TTx-resistant sodium current at 0.1 uM by whole-cell patch clamp technique; type: functional
Rattus norvegicus [34] = experiment: Antinociceptive activity in ip dosed Sprague-Dawley rat assessed as reduction of mechanical allodynia in Bennett model of neuropathic pain; type: functional; parameters: Activity: scale not given: the % may be the effect or the level left
[35] = target: Sodium channel protein type 10 subunit alpha (Mus musculus, UniProt Q6QIY3); experiment: Inhibition of mouse recombinant Nav 1.8 channel expressed in HEK293 cells by isotopic efflux assay; type: cell-based
[36] = target: T3, Nav1.5 (sodium channel protein type 5 subunit alpha); experiment: Inhibition of human Nav1.5 channel at 3 uM
[37] = target: Sodium channel protein type 3 subunit alpha (Homo sapiens) (UniProt Q9NY46); experiment: Inhibition of human Nav1.3 channel at 1 uM
[38] = Aqueous solubility of the compound; type: physicochemical
[39] = target: T2, Sodium channel protein type 10 subunit alpha; experiment: Activity at human recombinant Nav 1.8 channel expressed in HEK293 cells in resting state with prepulse voltage of -100 mV assessed as blockade of TTx-resistant sodium current at 1 uM; type: cell-based
[40] = Activity at rat dorsal root ganglion in resting state with prepulse voltage of -100 mV assessed as blockade of TTx-resistant sodium current at 1 uM by whole-cell patch clamp technique; type: functional
[41] = target: T3, Nav1.5 (sodium channel protein type 5 subunit alpha); experiment: as §1; settings: human
[42] = Oral bioavailability in Sprague-Dawley rat at 10 mg/kg; type: ADME, organism-based; settings: in vivo
[43] = target: T2, Sodium channel protein type 10 subunit alpha; experiment: Activity at human recombinant Nav 1.8 channel expressed in HEK293 cells in inactivated state with prepulse voltage of -40 mV assessed as blockade of TTx-resistant sodium current at 0.1 uM; type: cell-based
[44] = target: T2, Sodium channel protein type 10 subunit alpha; experiment: Activity at human recombinant Nav 1.8 channel expressed in HEK293 cells in resting state with prepulse voltage of -100 mV assessed as blockade of TTx-resistant sodium current at 0.1 uM; type: cell-based
[45] = Activity at rat dorsal root ganglion in inactivated state with prepulse voltage of -40 mV assessed as blockade of TTx-resistant sodium current at 1 uM by whole-cell patch clamp technique; type: functional
[46] = target: Sodium channel protein type 2 subunit alpha (Homo sapiens) (UniProt Q99250); experiment: Inhibition of human Nav1.2 channel at 1 uM
[47] = target: T2, Sodium channel protein type 10 subunit alpha; experiment: Inhibition of human recombinant Nav 1.8 channel expressed in HEK293 cells at 0.1 uM; type: cell-based
[48] = target: T2, Sodium channel protein type 10 subunit alpha; experiment: Inhibition of human recombinant Nav 1.8 channel expressed in HEK293 cells at 1 uM; type: cell-based
[49] = target: T2, Sodium channel protein type 10 subunit alpha; experiment: Activity at human recombinant Nav 1.8 channel expressed in HEK293 cells in inactivated state with prepulse voltage of -40 mV assessed as blockade of TTx-resistant sodium current at 1 uM; type: cell-based
[50] = Rattus norvegicus, Sprague-Dawley, ip

In the case of `Cc1cccc(NC(=O)c2ccc(-c3ccc(C#N)cc3)o2)c1`, the inhibition at 0.3 µM [1] is reported as 74%, the half-life [2] is reported as 1.9 h and the inhibition (Translocator protein [3]) is reported as greater than 60%. For the same compound, the inhibition [4] was 26%, the inhibition [5] was 33% and the IC50 [6] was greater than 2000 nM. The inhibition [7] was 58%, the inhibition [8] was 51% and the inhibition [9] was 14%. For the same compound, the inhibition [10] was 47%, the Activity (Rattus norvegicus [11]) was 55% and the ED50 (Rattus norvegicus [11]; [50]) was 98 mg/kg. It also gave an inhibition [12] of 29%, an inhibition at 10 µM [13] of 74% and a bioavailability [14] of 4%. It also gave an inhibition at 0.1 µM [15] of 38%, an inhibition [16] of 32% and an Activity (Rattus norvegicus [17]) of 86%. For the same compound, the ED50 (Rattus norvegicus [17]; [50]) was 38 mg/kg, the bioavailability [18] was 36% and the IC50 (Translocator protein [19]) was greater than 2000 nM. It also gave a Cmax [20] of 750 ng/mL, a Vd [21] of 1.9 L/kg and a fraction unbound [22] of 0.017. The inhibition [23] was 57%, the inhibition [24] was 54% and the microsomal CLint [25] was 260 µL/min/mg. It also gave an inhibition at 0.3 µM [26] of 52%, an inhibition [27] of 51% and an inhibition [28] of 33%. The Kp [29] was 0.35, the IC50 [30] was 79 nM and the IC50 [31] was 5800 nM. It also gave a clearance [32] of 40 mL/min/kg, an inhibition at 0.1 µM [33] of 41% and an Activity (Rattus norvegicus [34]) of 21%. The ED50 (Rattus norvegicus [34]; [50]) was greater than 100 mg/kg, the IC50 [35] was 480 nM and the inhibition at 3 µM [36] was 61%.

With `Cc1cccc(NC(=N)c2ccc(-c3ccc(Cl)cc3)o2)c1.Cl` the inhibition at 0.3 µM [1] was 45%, the inhibition [37] was 36% and the solubility [38] was 250 µg/mL. The inhibition [39] was 5%, the inhibition at 1 µM [40] was 10% and the inhibition at 1 µM [41] was 56%. It also gave a bioavailability [42] of 67%, an inhibition [43] of 46% and an inhibition [44] of 1%. The inhibition at 1 µM [45] was 60%, the inhibition [46] was 52% and the inhibition [47] was 46%. It also gave an inhibition [48] of 75%, a microsomal CLint [25] of 220 µL/min/mg and an inhibition at 0.3 µM [26] of 2%. The inhibition [49] was 75%, the IC50 [31] was 2100 nM and the IC50 [35] was 1900 nM.
